Data set [1] deals with NCI-H441 tumors. The data set is described as follows: NCI-H441 NSCLC in vivo tumor growth model. On the set-up: species or system SCID mice. The settings on record: 1 to 10 mg/kg oral BID, up to 26 days; FIG. 9. As for the experimental part:
NCI-H441 NSCLC In Vivo Tumor Growth Model. A xenograft study was conducted with NCI-H441 tumor-bearing mice. SCID mice were inoculated subcutaneously with NCI-H441 cells in the flank region above the right hind leg. Following inoculation of the animals, the tumors were allowed to grow to about 100 mm^3 prior to randomization. On Day 14 following tumor cell inoculation, the mice bearing NCI-H441 tumors ranging between 87 and 136 mm^3 were pooled together and randomized into various treatment groups. Compound 1 was formulated in 0.5% CMC and 0.25% Tween 80 in water (as a suspension). The animals were orally administered vehicle (CMC-Tween) or Compound 1 twice daily (BID) for up to 26 days. Doses of Compound 1 ranged between 1 and 10 mg/kg. The positive control rapamycin (4 mg/kg, Q3D) was administered via the intraperitoneal (IP) route. Rapamycin was prepared as solution in 2% ethanol, 45% polyethyleneglycol 400, and 53% saline. Tumors were measured twice a week using calipers and tumor volumes were calculated using the formula of W^2×L/2. Statistical analysis was performed using a one-way analysis of variance (ANOVA) followed by Dunnett's post-hoc comparison with the vehicle-treated control group.

Data set [2] relates to SW1573. In words: Cell viability assay for NSCLC lines. It counts as cell-based, human. The settings on record: SW1573, 3 days. The procedure:
(§1) Cell Viability Assay for NSCLC Lines. Cell viability was assessed using the Cell Titer-Glo Luminescent Cell Viability from Promega. The assay is a homogenous method of determining the number of viable cells in culture based on quantitation of the adenosine triphosphate (ATP) present, an indicator of metabolically active cells. The homogenous assay procedure involves adding the single reagent (CellTiter-Glo Reagent) directly to cells cultured in serum-supplemented medium. Cells were plated into a 96-well flat bottom plate (Costar Catalog Number 33595) at densities that were previously optimized for each cell line. The cells were incubated overnight in 5% CO2 at 37° C. The following day, compound dilutions were prepared and all concentrations were assayed in triplicate. The cells were incubated with Compound 1 (0.03 μM, 0.1 μM, 0.3 μM, 1 μM, 3 μM, 10 μM and 30 μM for NSCLC cells) in 5% CO2 at 37° C. for 3 days. After a 3-day incubation period, 100 μL of CellTiter-Glo reagent was added to each well for 2 minutes with shaking and further incubated for 10 minutes (no shaking) at room temperature to stabilize the signal. The luminescence was measured on the VICTOR X2 multilabel plate reader. The percent growth inhibition was calculated using the DMSO control in the same plate (no compound) response as 100% cell growth. The average values from triplicates were plotted to obtain IC50 values using software XLfit from IDBS. The formula used for determining IC50 in XLfit was model number 205, which utilizes a 4 Parameter Logistic Model or Sigmoidal Dose-Response Model to calculate the IC50 values. All IC50 values are reported as an average from either two independent experiments or a single experiment.

The test system of data set [3] is NCI-H549. The data set is described as follows: Cell viability assay for NSCLC lines. It counts as cell-based, human. The settings on record: NCI-H549, 3 days. The procedure:
as §1

For data set [4], the system named is GBM. In words: Phase 1/2 study Part B: tumor response, GBM. The format is in vivo, human. The settings on record: 10 evaluable GBM patients. The text has this: (§2) In Part B, subjects may start Compound 1 at the MTD and/or a lower dose level based on safety, PK and PD data from Part A. Approximately 150 subjects will be treated and evaluated for safety and preliminary antitumor activity after every two cycles of therapy. Tumor types include non-small cell lung cancer (NSCLC), glioblastoma multiforme (GBM), hepatocellular carcinoma (HCC), gastrointestinal neuroendocrine tumor of non-pancreatic origin (NET), diffuse large B-cell lymphoma (DLBCL), multiple myeloma (MM), and hormone receptor positive breast cancer (HRPBC). Up to 20 subjects will be enrolled in each tumor type.
Subjects will be evaluated for efficacy every 2 cycles through cycle 6 and every 3 cycles thereafter. The primary efficacy variable is response. Tumor assessments, including imaging (CT, MRI and/or PET) of the chest and abdomen and other sites as appropriate, will be performed during Screening. Subjects with brain lesions will also have brain scans at Screening and during follow-up tumor assessments. […] Subjects will be evaluated for tumor response on completion of Cycle 2, 4, 6, and so on. […]
(§3) For Part B, efficacy variables to be analyzed include tumor response at the end of treatment, the proportion of subject alive and progression-free, and duration of response. […]

Data set [5] in a line: Phase 1/2 study Part A: safety and tolerability.
Text: The study is designed as a Phase 1/2 trial consisting of two parts: dose escalation (Part A) and dose expansion (Part B).
Subsequently, a standard escalation dosing schedule with approximately 50% dose increments and 6 subjects per cohort will be initiated in order to establish the non-tolerated dose (NTD) and MTD. Smaller increments and additional subjects within a dose cohort may also be evaluated.
A dose will be considered to be non-tolerated if 2 evaluable subjects in a dose cohort experience dose-limiting toxicity (DLT). When a NTD is defined, dose escalation will be stopped. The MTD will be defined as the last dose tested below the NTD with 0 or 1 out of 6 evaluable subjects experiencing DLT during Cycle 1. An intermediate dose (i.e., one between the NTD and the last dose level before the NTD) or additional subjects within any dose cohort may be required to determine the MTD more precisely.
The safety variables for this study are adverse events, clinical laboratory variables, 12-lead ECGs (centrally reviewed), LVEF assessments, physical examinations and vital signs. In Part A, the decision to either evaluate a higher dose level or declare a MTD will be determined by the Safety Review Committee (SRC) each time all clinical and laboratory safety data for a given cohort is available for review. The SRC will also determine the dose, doses, or schedule appropriate for Part B. During Part B, the SRC will continue to review safety data regularly and make recommendations about the study continuation, as appropriate.
Part A: Accelerated Dose Escalation Results.
The subject of data set [6] is NET. In words: Phase 1/2 study Part B: tumor response, NET. It counts as in vivo, human.
Text: as §2
Subjects will be evaluated for efficacy every 2 cycles through cycle 6 and every 3 cycles thereafter. The primary efficacy variable is response. Tumor assessments, including imaging (CT, MRI and/or PET) of the chest and abdomen and other sites as appropriate, will be performed during Screening. Subjects with brain lesions will also have brain scans at Screening and during follow-up tumor assessments. After Screening, tumor assessments (for all tumors except multiple myeloma) will be performed on completion of Cycles 2, 4 and 6 (i.e., on Cycles 3, 5 and 7/Day 1±7 days) and then every 3 months thereafter (e.g., Cycle 10 and 13/Day 1±7 days). Tumor assessment (for multiple myeloma and only NHL/DLBCL with known or suspected marrow involvement) (bone marrow aspiration and biopsy, with PD biomarker analysis, cytogenetic analysis if abnormally present at Screening) will be performed on completion of Cycles 4, 8, 12 and 16 only (i.e., on Cycles 5, 9, 13 and 17/Day 1±7 days). Cytogenetics need not be repeated if normal at Screening. Tumor response will be based on Response Evaluation Criteria in Solid Tumors (RECIST 1.1), International Workshop Criteria (IWC) for NHL/DLBCL or International Uniform Response Criteria (IURC) for Multiple Myeloma, and RANO for GBM, using the post resection MRI scan as the baseline. Given the difficulty in assessing tumor response following salvage surgery, the primary efficacy endpoint for GBM will be the proportion of subjects progression-free at 6 months from Day 1 relative to efficacy evaluable subjects in the GBM type. Subjects will be evaluated for tumor response on completion of Cycle 2, 4, 6, and so on. A descriptive analysis of evidence of anti-tumor activity will be provided based on clinical and radiographic assessments by the investigator, which includes assessment of target lesion, non-target lesion, new lesion and overall response.
as §3

By IC50 is commonly meant the concentration needed to halve the response being measured. As for `CO[C@H]1CC[C@H](N2C(=O)CNc3ncc(-c4ccc(C(C)(C)O)nc4)nc32)CC1` [Compound 1, 7-(6-(2-hydroxypropan-2-yl)pyridin-3-yl)-1-((1r,4r)-4-methoxycyclohexyl)-3,4-dihydropyrazino-[2,3-b]pyrazin-2(1H)-one], in data set [1], the tumor growth entry is “significantly inhibited”. For the same compound, the IC50 in data set [2] stood at 7.21 µM; in data set [3], 0.77 µM. Further, in data set [4], the “clinical activity, defined as 6-month Progression-Free Survival” value is recorded as “No signs of clinical activity”. Further, the DLT result was “Grade 3 hyperglycemia” in data set [5] (30 mg); “grade 3 rash” in data set [5] (45 mg); “Fatigue and mucositis” in data set [5] (60 mg). For the same compound, the “dose level of the first grade 2 related toxicity” value in data set [5] (3rd dose level) turned out to be 30 mg. Besides, in data set [5] (N=28, 7.5 to 60 mg), the “most frequent related events” value was “Fatigue, GI toxicity (including mucositis/stomatitis), hyperglycemia, rash and arthralgia”. For the same compound, the MTD in data set [5] (once daily, oral) is reported as 45 mg. Moreover, the NTD in data set [5] (once daily, oral) is 60 mg. The Hyperglycemia result in data set [5] (onset often during cycle 1, dose related) was “reported frequently”. Besides, the interstitial pneumonitis result in data set [5] (responded to steroid treatment) is on record as “One case of grade 3 interstitial pneumonitis requiring hospitalization”. Also, the tolerability result in data set [5] (toxicities comparable to other drugs targeting this pathway) is “well tolerated”. Moreover, the “tumor metabolic activity by PET imaging” value in data set [6] (majority of subjects) is listed as “reductions in tumor metabolic activity”. Further, the “patients meeting Stable Disease (RECIST 1.1)” value in data set [6] (patients with sufficient follow up) is given as “Six patients”. Also, the “endocrine hormone markers (chromogranin, gastrin, serotonin, glucagon)” value in data set [6] (some patients) was “reductions”. For the same compound, in data set [6] (some patients with refractory baseline symptoms), the carcinoid syndrome-related symptoms result is “improvements”.

The values are drawn from US9493466B2, “Treatment of cancer with TOR kinase inhibitors” (Signal Pharmaceuticals, LLC, priority 2011, dated 2016).
